According to publication PMC5059567 (International Journal of Endocrinology, 2016):
Each block holds one molecule with its values, some of them ahead of it.

Columns and labels:
patients affected by ATC [1] = assay: Safety/toxicity in the trial (Common Toxicity Criteria, serum biochemistry); assay type: in vivo, human; settings: ATC patients enrolled in the study
Protocol: Hemogram, serum biochemistry, and electrolyte levels were measured before each chemotherapy cycle and when clinically indicated; toxicity was evaluated according to the Common Toxicity Criteria (CTC). […] In the presence of Grade 4 toxicity or in case of severe allergic reaction, treatment was definitively stopped.

patients affected by ATC [2] = assay: Randomized phase II/III trial: overall survival and progression-free survival; assay type: in vivo, human; settings: TAX 80 mg/m^2 weekly i.v. with or without VPA 1,000 mg/day p.o.
Protocol: The diagnosis was obtained by cytological examination of specimens following fine-needle aspiration and was confirmed by histologic examination in all patients who underwent surgery. Examination was performed by two different pathologists with proven experience in thyroid cancer. Inclusion criteria were (a) patients with radiologically or clinically confirmed disease progression during or after multimodal therapy (surgery, if performed, first-line systemic chemotherapy with doxorubicin and cisplatin, and external beam radiation (EBR)); (b) patients not eligible for surgery or EBR because of tumor local invasion or severe comorbidities. […] Patients or their legal representatives needed to be able to read, understand, and provide written informed consent to participate in the trial, according to the Declaration of Helsinki.
In the absence of disease progression, patients of both groups were treated up to 18 chemotherapy cycles. Primary outcomes were (1) overall survival and (2) disease progression, evaluated in terms of progression-free survival (PFS). The extent of thyroid neoplasia and secondary lesions were assessed at the beginning of treatment by computer tomography (CT) scans of head, neck, chest, and abdomen. Local recurrence or lymph node metastases were evaluated also by high definition neck ultrasonography (US). […]

[3] = Pharmacokinetics of TAX in plasma (noncompartmental, HPLC-UV); assay type: in vivo, human
Protocol: Blood samples were centrifuged immediately for 10 min at 1,000 ×g at room temperature and the resulting plasma was frozen and stored at −80°C until analysis.
Briefly, a volume of 200 μL of acetonitrile, 300 μL of deionized water, and 5 mL of tertbutylmethylether was added to 100 μL of plasma samples in borosilicate glass tubes. The mixture was vortexed for 30 sec and centrifuged at 2,500 ×g for 15 min. Upon centrifugation, 3 mL of the organic layer was transferred to a clean glass tube and evaporated to dryness under nitrogen. The residue was then reconstituted with 200 μL of 60% acetonitrile in deionized water and mixed on a vortex mixer for 90 sec; then 100 μL of the reconstituted sample was injected into the HPLC system equipped with a Symmetry C18 column (250 × 4.6 mm i.d., particle size 5 μm) and a Symmetry C18 guard column supplied by Waters (Vimodrone, Milan, Italy). Chromatographic analysis was performed at room temperature (20 ± 2°C) by isocratic elution with a mobile phase consisting in a mixture of acetonitrile—0.1% phosphoric acid in deionized water (60 : 40, v/v) (Milli-Q Plus System, Millipore, Milford, MA, USA) at a flow-rate of 1.0 mL/min.
The Mann–Whitney nonparametric test was used to compare pharmacokinetic values of the two different groups of patients; statistical evaluation was performed using Instat 3.05 software (Graphpad, San Diego, USA).

ATC cell lines = settings: combination with TAX; cited from earlier work
Serum levels of VPA = assay type: in vivo, human; settings: oral 1,000 mg valproate daily, after two weeks of treatment; range 50–72
Protocol: Drug measurement was performed using the Dimension Vista System (Siemens, Healthcare, Erlangen, Germany). The therapeutic range was […].

CYP3A4 = settings: preclinical in vitro; read-out: Ki (CYP3A4 inhibition); cited from earlier work
P-gp = settings: preclinical in vitro and in vivo experiments; cited from earlier work
ATC = ATC patients; cited from earlier work
[4] = human, intravenous, 80 mg/m^2, plasma, first chemotherapy cycle, 10 patients per group

Structure (SMILES): CC(=O)O[C@H]1C(=O)[C@@]2(C)[C@H]([C@H](OC(=O)c3ccccc3)[C@]3(O)C[C@H](OC(=O)[C@H](O)[C@@H](NC(=O)c4ccccc4)c4ccccc4)C(C)=C1C3(C)C)[C@]1(OC(C)=O)CO[C@@H]1C[C@@H]2O [TAX, paclitaxel]
- severe adverse effect (patients affected by ATC [1]): No severe adverse effect
- Median survival (patients affected by ATC [2]; Kaplan-Meier from enrollment, P = 0.9): 148 days
- Median time to progression (patients affected by ATC [2]; P = 0.6): 51 days
- Cmax [3, 4]: 1160 ng/mL
- Vd [3, 4]: 52.1 L
- clearance [3, 4]: 664 mL/min
- half-life [3, 4]: 2.03 h
- k el [3, 4]: 9.44e-05 s⁻¹

- valproate blood levels (Serum levels of VPA): 67 µg/mL
Structure (SMILES): CCCC(CCC)C(=O)O [VPA, valproic acid]
- VPA dose at which enhancement of TAX cytostatic and cytotoxic activity was reached (ATC cell lines): 0.7 mM
- P-gp expression (P-gp): induce the overexpression

Structure (SMILES): COc1ccc(C[C@@H](O)c2cc(OC)c(OC)c(OC)c2)cc1O [combretastatin]
- median survival reported in clinical trials (ATC): 5.2 months

Structure (SMILES): Cc1ccc(Nc2nccc(N(C)c3ccc4c(C)n(C)nc4c3)n2)cc1S(N)(=O)=O [pazopanib]
- median survival reported in clinical trials (ATC): 111 days

Structure (SMILES): CNC(=O)c1cc(Oc2ccc(NC(=O)Nc3ccc(Cl)c(C(F)(F)F)c3)cc2)ccn1 [sorafenib]
- median survival reported in clinical trials (ATC): 3.9 months
